Test results as given in US4957864A, “Novel plasminogen activator and its preparation process” (Mitsui Toatsu Chemicals, Incorporated, priority 1982, dated 1990).
Where two headings read alike, the source gives them in different places.

Experiments:
[1] = biological target: tissue activator obtained from human kidney (Homo sapiens, UniProt P00750); assay: biochemical; format: biochemical
[2] = biological target: T1, vascular plasminogen activator (Homo sapiens, UniProt P00750); assay: biochemical
T1 construct: from tissue; host or cells: blood vessel wall
T1 sequence (P00750 36-562): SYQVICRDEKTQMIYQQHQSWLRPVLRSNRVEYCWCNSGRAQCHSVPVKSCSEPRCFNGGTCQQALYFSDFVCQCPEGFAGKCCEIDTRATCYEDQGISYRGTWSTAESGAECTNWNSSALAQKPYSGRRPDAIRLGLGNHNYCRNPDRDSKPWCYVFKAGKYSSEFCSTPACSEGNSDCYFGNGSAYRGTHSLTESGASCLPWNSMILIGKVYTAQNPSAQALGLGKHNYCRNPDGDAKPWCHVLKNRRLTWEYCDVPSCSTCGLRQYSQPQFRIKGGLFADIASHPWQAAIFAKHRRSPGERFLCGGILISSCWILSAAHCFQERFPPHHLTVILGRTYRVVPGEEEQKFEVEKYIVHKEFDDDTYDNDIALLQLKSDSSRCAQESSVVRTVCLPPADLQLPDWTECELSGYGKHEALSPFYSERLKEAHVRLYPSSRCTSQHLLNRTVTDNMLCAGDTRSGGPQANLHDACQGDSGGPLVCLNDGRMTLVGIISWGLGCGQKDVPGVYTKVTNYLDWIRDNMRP

[3] = system: antivascular plasminogen activator serum; assay: double immunodiffusion with antivascular plasminogen activator and anti-urokinase serums; format: binding
Source text: Using the antivascular plasminogen activator and anti-urokinase serums, the antigenicities of the both activators were studied in accordance with the double immunodiffusion method. As a result, both urokinase and the vascular plasminogen activator developed individually a single precipitation curve between themselves and their corresponding anti-urokinase or antivascular plasminogen activator serum.
In order to study whether the activators obtained respectively from kidney tissue and the wall of a blood vessel have the same antigenicity as urokinase, the elution profile of proteins and active ingredient of the activator obtained by the antiurokinase IgG-Sepharose affinity chromatographic treatment of the purified activator of Example 1-(6) and the activator of Example 1-(3) was compared with the elution profile of urokinase. […] The protein contained in the effluents was serum albumine incorporated in the commercially available urokinase used in this experiment. […] When the partially-purified sample obtained in Example 1-(3) was poured in the same column, about 15% of the poured activity was adsorbed on the column and eluted with the glycine solution of pH 2.4. […]

[4] = hydrolytic activity against fluorescent 4-methylcoumaryl-7-amide substrates; format: biochemical; conditions: 3093-V, 3095-V, 3096-V, 3097-V
Procedure: The thus-purified tissue activator was tested with various fluorescent substrates by adding 50 μl of the tissue activator sample in a 0.02M Tris-HCl solution of pH 8.0 containing 0.1M NaCl and 0.02% Tween 80 and 2.0 ml of the substrate in the same buffer solution. The following materials were used as the fluorescent substrates:
Boc-L-valyl-L-prolyl-L-arginine-4-methyl-coumaryl-7-amide;
Carbobenzoxy-L-phenylalanyl-L-arginine 4-methylcoumaryl-7-amide;
L-prolyl-L-phenylalanyl-L-arginine-4-methylcoumaryl-7-amide; and
Glutaryl-glycyl-L-arginine-4-methylcoumaryl-7-amide.
The initial release of 7-amino-4-methylcoumarine (AMC) was measured by a fluorometer at 37° C. in a Shimadzu Fluorospectrophotometer Model RF-520. The fluorometer had been set in such a manner that a radiation of a fluorescent light of 380 nm permitted to emit an excited fluorescent light of 460 nm, and also so adjusted that a 0.1% DMSO solution containing […] gave a relative fluorescent unit of 1.0. The hydrolytic activity of the purified tissue activator was measured using a chromogenic substrate, by adding 200 μl of a tissue activator sample, 200 μl of a 0.1M Tris-HCl solution of pH 8.0 containing 0.1M NaCl and 0.02% Tween 80, and 200 μl of a 3 mM S-2251 solution or a 1 mM S-2288 solution. The initial release of p-nitroaniline was measured by a spectrophotometer at 405 nm and 37° C. in a glass cell. […]

anti-urokinase IgG = assay: affinity chromatography on anti-urokinase IgG-Sepharose column; format: binding, goat
Source text: The employed urokinase sample was identical to that analyzed in accordance with the SDS-polyacrylamide gel electrophoresis.
The gel was washed with a 0.02M Tris-HCl solution of pH 7.4 containing 1.0M NaCl at least 20 times in volume that of the gel.

[5] = hydrolytic activity against chromogenic substrate S-2251; format: biochemical; conditions: activator 100 UKIU/ml; 37° C., 405 nm
Procedure: (§1) The initial release of 7-amino-4-methylcoumarine (AMC) was measured by a fluorometer at 37° C. in a Shimadzu Fluorospectrophotometer Model RF-520. The fluorometer had been set in such a manner that a radiation of a fluorescent light of 380 nm permitted to emit an excited fluorescent light of 460 nm, and also so adjusted that a 0.1% DMSO solution containing […] gave a relative fluorescent unit of 1.0. The hydrolytic activity of the purified tissue activator was measured using a chromogenic substrate, by adding 200 μl of a tissue activator sample, 200 μl of a 0.1M Tris-HCl solution of pH 8.0 containing 0.1M NaCl and 0.02% Tween 80, and 200 μl of a 3 mM S-2251 solution or a 1 mM S-2288 solution. The initial release of p-nitroaniline was measured by a spectrophotometer at 405 nm and 37° C. in a glass cell. The initial velocity of the hydrolytic activity was expressed in terms of ΔmA/min for the chromogenic substrate and Δ%/min for the fluorescent substrate.
For plasmin, H-D-valyl-L-leucyl-L-lysine-p-nitroanilide dihydrochloride (S-2251);

[6] = hydrolytic activity against chromogenic substrate S-2288; format: biochemical; conditions: activator 100 UKIU/ml; 37° C., 405 nm
Procedure: as §1
For tissue plasminogen activator, H-D-isoleucyl-L-prolyl-L-arginine-p-nitroanilide dihydrochloride (S-2288).

[7] = storage and pH stability of activity in buffer solution; format: physicochemical
Procedure: The same result was obtained even when 1M NH4 SCN or 0.02% Tween 80 and 0.1M NaCl were incorporated in the buffer solution.
The stability of the plasminogen activator of the present invention was investigated in the pH
hours in a buffer solution range of 1-10 at 4° C. for 24 containing 0.5M NaCl and 0.02% Tween 80.

fibrin [8] = assay: fibrinolytic activity by the fibrin-agar plate method, compared with urokinase (UKIU); format: biochemical
Procedure: The fibrinolytic activity of the tissue activator was compared with that of urokinase and was expressed in terms of the international unit (UKIU). […] The activity of the tissue activator was determined by measuring the lytic areas of diluted samples within the range of 120-200 mm^2. […] The enzymatic activity of the tissue activator was standardized by the enzymatic activity of urokinase and the percentage recovery of the tissue activator and its specific activity relative to UKIU/ml were measured after each of several purification stages.
The non-specific fibrin-resolving activity was measured on a fibrin-agar plate free of plasminogen.

[9] = isoelectric point by polyacrylamide gel isoelectric-point electrophoresis; format: physicochemical; conditions: 7.5% polyacrylamide gel, 8M urea, 1% ampholite
Procedure: The measurement of the isoelectric point of the purified tissue activator was carried out in a 7.5% polyacrylamide gel containing 8M urea and 1% ampholite in accordance with the method proposed by Mertz et al. [Biochem. Biophys. Res. Commun. 49, 84-91 (1972)]. The sample was solubilized in an 8M urea solution containing 2 mM EDTA and 1% ampholite. Its pH was determined by the method proposed by Finlayson et al. [Anal. Biochem. 40, 292-311 (1971)].

[10] = system: insolubilized fibrin monomer; assay: adsorption onto fibrin-Sepharose column; format: binding, human
fibrin [11] = conditions: M.W. 33,000 urokinase sample; cited from earlier work
[12] = Aprotinin 50 KIU/ml, iodoacetamide 10 mM, soybean trypsin 50 mg/ml, L-arginine 100 mM, diisopropyl fluorophosphate 5 mM, 37° C., 1 hour
[13] = diisopropyl fluorophosphate 5 mM, L-arginine 0.1M, Trasylol 50 KIU/ml, iodoacetamide 10 mM, soybean trypsin inhibitor 50 μg/ml

Sequence of tissue activator obtained from human kidney (P00750 36-562): as above

N=C(N)NCCC[C@H](N)C(=O)O [L-arginine]
inhibition at 100000 µM ([1]; read-out: inhibition of amide-decomposing activity against S-2288): ≤ 26%
inhibition at 50 µg/mL ([2]; read-out: activity inhibition of the vascular plasminogen activator): 20%

NC(=O)CI [iodoacetamide]
inhibition of amide-decomposing activity against S-2288 [1, 12]: not inhibited
activity inhibition of the vascular plasminogen activator [2, 13]: no changes

Aprotinin [Trasylol]
inhibition of amide-decomposing activity against S-2288 [1, 12]: not inhibited
activity inhibition of the vascular plasminogen activator [2, 13]: no changes

kidney-originated activator: purified tissue plasminogen activator obtained from human kidney in Example 1-(6); molecular weight about 72,000
crosslinking of precipitation curves / with antiserum in immunodiffusion [3]: ready crosslinking reaction
hydrolytic activity to substrates other than S-2251 and S-2288 [4]: did not show hydrolytic activity
adsorption / affinity for anti-urokinase IgG-Sepharose (anti-urokinase IgG): passed through the column without adsorption
hydrolytic activity against S-2251 [5]: 88 ΔmA/min
hydrolytic activity against S-2288 [6]: 70 ΔmA/min
pH range in which the activator was stable ([7]; 4° C., 24 hours, buffer containing 0.5M NaCl and 0.02% Tween 80, pH 1-10 tested): 2-10
activity after storage ([7]; 4° C., buffer solution of pH 7.4, 2 weeks): did not give any activity reduction
reduction of activity ([7]; pH 1.0, 4° C., 24 hours, 0.5M NaCl and 0.02% Tween 80): 70%
Specific activity (fibrin [8]; Table 2, purification stages of tissue plasminogen activator obtained from kidneys): 25,700 UKIU/mg
specific activity relative to human kidney dried with acetone (fibrin [8]; highly purified form): 30,000-45,000 times
isoelectric point (pI) of the main band [9]: 8.2
adsorption onto fibrin-Sepharose column [10]: adsorbed completely
total poured activity recovered by elution with 2M NH4 SCN from fibrin-Sepharose [10]: at least 90%

urokinase [reference compound]
adsorption / affinity for anti-urokinase IgG-Sepharose (anti-urokinase IgG): adsorbed strongly
specific activity of high-purity human urokinase used as immunogen (fibrin [11]): 202,400 IU/mg
lytic area on fibrin-agar plate (fibrin [8]; 10 μl of a 1 IU/ml solution): 156 mm^2
adsorption onto fibrin-Sepharose column [10]: passed through the column

vascular plasminogen activator: purified plasminogen activator from human blood vessel walls; single-chain glycoprotein, molecular weight about 70,000
crosslinking of precipitation curves / with antiserum in immunodiffusion [3]: no crosslinking was observed
adsorption / affinity for anti-urokinase IgG-Sepharose (anti-urokinase IgG): did not show any affinity
Specific activity (fibrin [8]; Table 1, purification stages of tissue plasminogen activator from blood vessels): 57,400 UKIU/mg
specific activity of the final plasminogen activator (fibrin [8]; blood vessel derived, after final purification): 45,000-80,000 IU/mg proteins
isoelectric point (pI) of the main band [9]: 7.8

B1: soybean trypsin inhibitor: soybean trypsin inhibitor used as protease inhibitor (protein, UniProt P01070 25-205, looked up)
Trypsin inhibitor A: DFVLDNEGNPLENGGTYYILSDITAFGGIRAAPTGNERCPLTVVQSRNELDKGIGTIISSPYRIRFIAEGHPLSLKFDSFAVIMLCVGIPTEWSVVEDLPEGPAVKIGENKDAMDGWFRLERVSDDEFNNYKLVFCPQQAEDDKCGDIGISIDHDDGTRRLVVSKNKPLVVQFQKLDKESL
inhibition of amide-decomposing activity against S-2288 [1]: not inhibited
activity inhibition of the vascular plasminogen activator [2]: no changes
